Results from PubChem BioAssay AID1963842 (Molecular Pharmacology Branch, DTP, NCI, 2024).

System: 677734-321-R-J1-PDC complex spheroid viability
Assay: Anticancer human tumor 677734-321-R-J1-PDC patient-derived soft tissue sarcoma cell line growth inhibition [POLQ]
Conditions: for IC50: curve of first compound; for viability, T/C: stronger effect = lower value
Procedure, shortened: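 Patient-derived tumour cells were co-cultured with HUVEC and mesenchymal stem cells as multicellular spheroids at 37 °C. They were treated with POLQ inhibitors (novobiocin, ART-558, RP6685) alone or combined with other agents. Top concentrations were at or near clinical Cmax (otherwise 10 microM; SN-38 at 1 microM), decreasing in half-log steps.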

[1] = second compound 0.0316 µM, first compound 0.0316 µM
[2] = second compound 0.0316 µM, first compound 0.1 µM
[3] = second compound 0.0316 µM, first compound 0.316 µM
[4] = second compound 0.0316 µM, first compound 1 µM
[5] = second compound 0.0316 µM, first compound 3.16 µM
[6] = second compound 0.0316 µM, first compound 10 µM
[7] = second compound 0.1 µM, first compound 0.0316 µM
[8] = second compound 0.1 µM, first compound 0.1 µM
[9] = second compound 0.1 µM, first compound 0.316 µM
[10] = second compound 0.1 µM, first compound 1 µM
[11] = second compound 0.1 µM, first compound 3.16 µM
[12] = second compound 0.1 µM, first compound 10 µM
[13] = second compound 0.316 µM, first compound 0.0316 µM
[14] = second compound 0.316 µM, first compound 0.1 µM
[15] = second compound 0.316 µM, first compound 0.316 µM
[16] = second compound 0.316 µM, first compound 1 µM
[17] = second compound 0.316 µM, first compound 3.16 µM
[18] = second compound 0.316 µM, first compound 10 µM
[19] = second compound 1 µM, first compound 0.0316 µM
[20] = second compound 1 µM, first compound 0.1 µM
[21] = second compound 1 µM, first compound 0.316 µM
[22] = second compound 1 µM, first compound 1 µM
[23] = second compound 1 µM, first compound 3.16 µM
[24] = second compound 1 µM, first compound 10 µM
[25] = second compound 3.16 µM, first compound 0.0316 µM
[26] = second compound 3.16 µM, first compound 0.1 µM
[27] = second compound 3.16 µM, first compound 0.316 µM
[28] = second compound 3.16 µM, first compound 1 µM
[29] = second compound 3.16 µM, first compound 3.16 µM
[30] = second compound 3.16 µM, first compound 10 µM
[31] = second compound 10 µM, first compound 0.0316 µM
[32] = second compound 10 µM, first compound 0.1 µM
[33] = second compound 10 µM, first compound 0.316 µM
[34] = second compound 10 µM, first compound 1 µM
[35] = second compound 10 µM, first compound 3.16 µM
[36] = second compound 10 µM, first compound 10 µM
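Also: spheroids exposed to compounds for one week.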
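For viability, T/C in this document: 100% = vehicle DMSO treated spheroids.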

## CC(=O)O[C@H]1C(=O)[C@@]2(C)[C@H]([C@H](OC(=O)c3ccccc3)[C@]3(O)C[C@H](OC(=O)[C@H](O)[C@@H](NC(=O)c4ccccc4)c4ccccc4)C(C)=C1C3(C)C)[C@]1(OC(C)=O)CO[C@@H]1C[C@@H]2O + Cc1cccc(N(C)C(=O)C2C(O)CCN2c2nc(C)cc(C(F)(F)F)c2C#N)c1
Second compound 0.0316 µM
  IC50: < 9.49 nM
Second compound 0.1 µM
  IC50: < 9.49 nM
Second compound 0.316 µM
  IC50: < 9.49 nM
Second compound 1 µM
  IC50: < 9.49 nM
Second compound 3.16 µM
  IC50: < 9.49 nM
Second compound 10 µM
  IC50: < 9.49 nM
Second compound 0.0316 µM, first compound 0.00949 µM
  viability, T/C: 21.8%
Second compound 0.0316 µM, first compound 0.03 µM
  viability, T/C: 14.4%
Second compound 0.0316 µM, first compound 0.0949 µM
  viability, T/C: 14.1%
Second compound 0.0316 µM, first compound 0.3 µM
  viability, T/C: 12.6%
Second compound 0.0316 µM, first compound 0.949 µM
  viability, T/C: 10.9%
Second compound 0.0316 µM, first compound 3 µM
  viability, T/C: 12.8%
Second compound 0.1 µM, first compound 0.00949 µM
  viability, T/C: 23.7%
Second compound 0.1 µM, first compound 0.03 µM
  viability, T/C: 16.1%
Second compound 0.1 µM, first compound 0.0949 µM
  viability, T/C: 13.6%
Second compound 0.1 µM, first compound 0.3 µM
  viability, T/C: 13.3%
Second compound 0.1 µM, first compound 0.949 µM
  viability, T/C: 13.5%
Second compound 0.1 µM, first compound 3 µM
  viability, T/C: 15.6%
Second compound 0.316 µM, first compound 0.00949 µM
  viability, T/C: 22.8%
Second compound 0.316 µM, first compound 0.03 µM
  viability, T/C: 18.9%
Second compound 0.316 µM, first compound 0.0949 µM
  viability, T/C: 12.4%
Second compound 0.316 µM, first compound 0.3 µM
  viability, T/C: 10.3%
Second compound 0.316 µM, first compound 0.949 µM
  viability, T/C: 12.4%
Second compound 0.316 µM, first compound 3 µM
  viability, T/C: 13.9%
Second compound 1 µM, first compound 0.00949 µM
  viability, T/C: 26%
Second compound 1 µM, first compound 0.03 µM
  viability, T/C: 23.1%
Second compound 1 µM, first compound 0.0949 µM
  viability, T/C: 14%
Second compound 1 µM, first compound 0.3 µM
  viability, T/C: 11.4%
Second compound 1 µM, first compound 0.949 µM
  viability, T/C: 9.6%
Second compound 1 µM, first compound 3 µM
  viability, T/C: 9.4%
Second compound 3.16 µM, first compound 0.00949 µM
  viability, T/C: 23.6%
Second compound 3.16 µM, first compound 0.03 µM
  viability, T/C: 13.4%
Second compound 3.16 µM, first compound 0.0949 µM
  viability, T/C: 12.2%
Second compound 3.16 µM, first compound 0.3 µM
  viability, T/C: 12.8%
Second compound 3.16 µM, first compound 0.949 µM
  viability, T/C: 12%
Second compound 3.16 µM, first compound 3 µM
  viability, T/C: 14.6%
Second compound 10 µM, first compound 0.00949 µM
  viability, T/C: 27.3%
Second compound 10 µM, first compound 0.03 µM
  viability, T/C: 12.4%
Second compound 10 µM, first compound 0.0949 µM
  viability, T/C: 12.2%
Second compound 10 µM, first compound 0.3 µM
  viability, T/C: 14.5%
Second compound 10 µM, first compound 0.949 µM
  viability, T/C: 11.3%
Second compound 10 µM, first compound 3 µM
  viability, T/C: 11.4%

## COc1cc(C2c3cc4c(cc3C(OC3OC5COC(C)OC5C(O)C3O)C3COC(=O)C23)OCO4)cc(OC)c1O (stereo not drawn) + Cc1cccc(N(C)C(=O)C2C(O)CCN2c2nc(C)cc(C(F)(F)F)c2C#N)c1
Second compound 0.0316 µM
  IC50: 773 nM
Second compound 0.1 µM
  IC50: 873 nM
Second compound 0.316 µM
  IC50: 907 nM
Second compound 1 µM
  IC50: 821 nM
Second compound 3.16 µM
  IC50: 641 nM
Second compound 10 µM
  IC50: 814 nM
[1]
  viability, T/C: 99.4%
[2]
  viability, T/C: 101%
[3]
  viability, T/C: 60.8%
[4]
  viability, T/C: 47%
[5]
  viability, T/C: 26.6%
[6]
  viability, T/C: 10.5%
[7]
  viability, T/C: 103%
[8]
  viability, T/C: 87.7%
[9]
  viability, T/C: 63.3%
[10]
  viability, T/C: 54.3%
[11]
  viability, T/C: 23%
[12]
  viability, T/C: 10.7%
[13]
  viability, T/C: 107%
[14]
  viability, T/C: 90.6%
[15]
  viability, T/C: 68.6%
[16]
  viability, T/C: 52.4%
[17]
  viability, T/C: 22.5%
[18]
  viability, T/C: 8.11%
[19]
  viability, T/C: 114%
[20]
  viability, T/C: 86.1%
[21]
  viability, T/C: 62.6%
[22]
  viability, T/C: 50.1%
[23]
  viability, T/C: 23.7%
[24]
  viability, T/C: 9.86%
[25]
  viability, T/C: 104%
[26]
  viability, T/C: 88.7%
[27]
  viability, T/C: 52%
[28]
  viability, T/C: 50.7%
[29]
  viability, T/C: 22%
[30]
  viability, T/C: 10.1%
[31]
  viability, T/C: 107%
[32]
  viability, T/C: 83.3%
[33]
  viability, T/C: 65.8%
[34]
  viability, T/C: 52.7%
[35]
  viability, T/C: 21.5%
[36]
  viability, T/C: 14.7%

## Nc1ccn(C2OC(CO)C(O)C2(F)F)c(=O)n1 (stereo not drawn) + Cc1cccc(N(C)C(=O)C2C(O)CCN2c2nc(C)cc(C(F)(F)F)c2C#N)c1
Second compound 0.0316 µM
  IC50: < 31.6 nM
Second compound 0.1 µM
  IC50: < 31.6 nM
Second compound 0.316 µM
  IC50: < 31.6 nM
Second compound 1 µM
  IC50: < 31.6 nM
Second compound 3.16 µM
  IC50: < 31.6 nM
Second compound 10 µM
  IC50: < 31.6 nM
[1]
  viability, T/C: 38.5%
[2]
  viability, T/C: 15.2%
[3]
  viability, T/C: 14.2%
[4]
  viability, T/C: 14.7%
[5]
  viability, T/C: 14.9%
[6]
  viability, T/C: 10.1%
[7]
  viability, T/C: 43.5%
[8]
  viability, T/C: 15.1%
[9]
  viability, T/C: 13.7%
[10]
  viability, T/C: 15.4%
[11]
  viability, T/C: 15.8%
[12]
  viability, T/C: 11%
[13]
  viability, T/C: 31.8%
[14]
  viability, T/C: 22%
[15]
  viability, T/C: 14.1%
[16]
  viability, T/C: 16.9%
[17]
  viability, T/C: 12.4%
[18]
  viability, T/C: 10.8%
[19]
  viability, T/C: 30.9%
[20]
  viability, T/C: 18.4%
[21]
  viability, T/C: 14.3%
[22]
  viability, T/C: 15.4%
[23]
  viability, T/C: 19.6%
[24]
  viability, T/C: 12%
[25]
  viability, T/C: 35.2%
[26]
  viability, T/C: 14.9%
[27]
  viability, T/C: 14.6%
[28]
  viability, T/C: 13.5%
[29]
  viability, T/C: 13.3%
[30]
  viability, T/C: 13%
[31]
  viability, T/C: 39.8%
[32]
  viability, T/C: 17.3%
[33]
  viability, T/C: 15.3%
[34]
  viability, T/C: 13.7%
[35]
  viability, T/C: 13.3%
[36]
  viability, T/C: 12.2%

## O=c1[nH]cc(F)c(=O)[nH]1 + Cc1cccc(N(C)C(=O)C2C(O)CCN2c2nc(C)cc(C(F)(F)F)c2C#N)c1
Second compound 0.0316 µM
  IC50: 5410 nM
Second compound 0.1 µM
  IC50: 2940 nM
Second compound 0.316 µM
  IC50: 3180 nM
Second compound 1 µM
  IC50: 5910 nM
Second compound 3.16 µM
  IC50: 6990 nM
Second compound 10 µM
  IC50: 2890 nM
[1]
  viability, T/C: 104%
[2]
  viability, T/C: 110%
[3]
  viability, T/C: 111%
[4]
  viability, T/C: 93.9%
[5]
  viability, T/C: 54.6%
[6]
  viability, T/C: 44.9%
[7]
  viability, T/C: 107%
[8]
  viability, T/C: 103%
[9]
  viability, T/C: 104%
[10]
  viability, T/C: 76.5%
[11]
  viability, T/C: 49.2%
[12]
  viability, T/C: 44.8%
[13]
  viability, T/C: 112%
[14]
  viability, T/C: 108%
[15]
  viability, T/C: 103%
[16]
  viability, T/C: 97.7%
[17]
  viability, T/C: 49.8%
[18]
  viability, T/C: 47.2%
[19]
  viability, T/C: 104%
[20]
  viability, T/C: 106%
[21]
  viability, T/C: 108%
[22]
  viability, T/C: 90.9%
[23]
  viability, T/C: 55.9%
[24]
  viability, T/C: 45.1%
[25]
  viability, T/C: 108%
[26]
  viability, T/C: 105%
[27]
  viability, T/C: 112%
[28]
  viability, T/C: 101%
[29]
  viability, T/C: 54.3%
[30]
  viability, T/C: 48%
[31]
  viability, T/C: 104%
[32]
  viability, T/C: 99.3%
[33]
  viability, T/C: 105%
[34]
  viability, T/C: 83%
[35]
  viability, T/C: 47.6%
[36]
  viability, T/C: 46.8%
